Tested on: antigen specific CD8^+ T cells
Experiment: IL-21 addition to NEO-STIM.RNA cultures
Assay type: cell-based, human
Description: In order to improve the NEO-STIM protocol using RNA, IL-21 was explored as an addition to the protocol.

In the case of “IL-21: cytokine added to the NEO-STIM RNA protocol”, the “hit rate, neoantigen specific frequency and cell expansion” value (NEO-PTC-01.RNA, healthy donor, day 14 read-out) is reported as “increased hit rate, neoantigen specific frequency and cell expansion”, the “central memory phenotype in antigen specific CD8^+ T cells” value (NEO-STIM) is reported as “increases central memory phenotype in antigen specific CD8^+ T cells” and the Tcm population (NEO-STIM.RNA) is reported as “increases Tcm population in our NEO-STIM.RNA cultures”. For the same substance, the expansion of cultures (NEO-STIM.RNA) was “improves the expansion of NEO-STIM.RNA cultures” and the “priming of specific T cells” value (NEO-STIM.RNA) was “improves the priming of specific T cells in NEO-STIM.RNA cultures”.

— US20250195659A1, “T CELL MANUFACTURING COMPOSITIONS AND METHODS” (BIONTECH US INC., priority 2021, published 2025)
